# Values of other authors as cited in patent publication US20090131395A1, “BIPHENYLAZETIDINONE CHOLESTEROL ABSORPTION INHIBITORS” (MICROBIA, INC., priority 2005, published 2009).
# Target: T1, ileal Na+/bile acid cotransporter (Homo sapiens, UniProt Q12908)
# T1 sequence (Q12908 1-348): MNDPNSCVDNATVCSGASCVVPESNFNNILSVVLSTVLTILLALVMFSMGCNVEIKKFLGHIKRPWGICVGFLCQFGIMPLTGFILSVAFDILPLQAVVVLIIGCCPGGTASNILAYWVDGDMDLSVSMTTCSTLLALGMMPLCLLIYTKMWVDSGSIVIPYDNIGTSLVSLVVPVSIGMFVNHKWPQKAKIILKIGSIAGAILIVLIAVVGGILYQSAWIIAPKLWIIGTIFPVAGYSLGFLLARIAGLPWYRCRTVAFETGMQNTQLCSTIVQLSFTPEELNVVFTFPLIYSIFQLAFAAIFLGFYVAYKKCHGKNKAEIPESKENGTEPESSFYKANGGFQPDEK
# Details: in vivo
smiles,measurement,value
"O=C1[C@H](CC[C@H](O)c2ccc(F)cc2)[C@@H](c2ccc(O)cc2)N1c1ccc(F)cc1 [ezetimibe, (3R,4S)-1-(4-fluorophenyl)-3-[(3S)-3-(4-fluorophenyl)-3-hydroxypropyl]-4-(4-hydroxyphenyl)azetidin-2-one]",inhibition of the absorption of taurocholic acid,does not inhibit the absorption of taurocholic acid
